The source of these data is ChEMBL document CHEMBL5154811, “Discovery of SPH5030, a Selective, Potent, and Irreversible Tyrosine Kinase Inhibitor for HER2-Amplified and HER2-Mutant Cancer Treatment” (J Med Chem, 2022).

One data set deals with BT-474. Description: Antiproliferative activity against human BT-474 cells assessed as inhibition of cell growth incubated for 72 hrs by Celltiter-Glo assay. In kind it is functional, cell-based. The settings on record: BT-474, 72 h. A general note: Cellular ATP, detected with luciferase, serves as a proxy for viable cell number.
The target of data set [1] is Receptor tyrosine-protein kinase erbB-2 (Homo sapiens, UniProt P04626). Description: Inhibition of wild type human GST-tagged HER2 (676 to end residues) expressed in baculovirus infected Sf9 cells incubated for 30 mins in presence of ATP by HTRF analysis. Background: TR-FRET usually uses a lanthanide donor and a delayed reading to cut background.
Sequence of Receptor tyrosine-protein kinase erbB-2 (P04626 whole entry, the tested form may be a part): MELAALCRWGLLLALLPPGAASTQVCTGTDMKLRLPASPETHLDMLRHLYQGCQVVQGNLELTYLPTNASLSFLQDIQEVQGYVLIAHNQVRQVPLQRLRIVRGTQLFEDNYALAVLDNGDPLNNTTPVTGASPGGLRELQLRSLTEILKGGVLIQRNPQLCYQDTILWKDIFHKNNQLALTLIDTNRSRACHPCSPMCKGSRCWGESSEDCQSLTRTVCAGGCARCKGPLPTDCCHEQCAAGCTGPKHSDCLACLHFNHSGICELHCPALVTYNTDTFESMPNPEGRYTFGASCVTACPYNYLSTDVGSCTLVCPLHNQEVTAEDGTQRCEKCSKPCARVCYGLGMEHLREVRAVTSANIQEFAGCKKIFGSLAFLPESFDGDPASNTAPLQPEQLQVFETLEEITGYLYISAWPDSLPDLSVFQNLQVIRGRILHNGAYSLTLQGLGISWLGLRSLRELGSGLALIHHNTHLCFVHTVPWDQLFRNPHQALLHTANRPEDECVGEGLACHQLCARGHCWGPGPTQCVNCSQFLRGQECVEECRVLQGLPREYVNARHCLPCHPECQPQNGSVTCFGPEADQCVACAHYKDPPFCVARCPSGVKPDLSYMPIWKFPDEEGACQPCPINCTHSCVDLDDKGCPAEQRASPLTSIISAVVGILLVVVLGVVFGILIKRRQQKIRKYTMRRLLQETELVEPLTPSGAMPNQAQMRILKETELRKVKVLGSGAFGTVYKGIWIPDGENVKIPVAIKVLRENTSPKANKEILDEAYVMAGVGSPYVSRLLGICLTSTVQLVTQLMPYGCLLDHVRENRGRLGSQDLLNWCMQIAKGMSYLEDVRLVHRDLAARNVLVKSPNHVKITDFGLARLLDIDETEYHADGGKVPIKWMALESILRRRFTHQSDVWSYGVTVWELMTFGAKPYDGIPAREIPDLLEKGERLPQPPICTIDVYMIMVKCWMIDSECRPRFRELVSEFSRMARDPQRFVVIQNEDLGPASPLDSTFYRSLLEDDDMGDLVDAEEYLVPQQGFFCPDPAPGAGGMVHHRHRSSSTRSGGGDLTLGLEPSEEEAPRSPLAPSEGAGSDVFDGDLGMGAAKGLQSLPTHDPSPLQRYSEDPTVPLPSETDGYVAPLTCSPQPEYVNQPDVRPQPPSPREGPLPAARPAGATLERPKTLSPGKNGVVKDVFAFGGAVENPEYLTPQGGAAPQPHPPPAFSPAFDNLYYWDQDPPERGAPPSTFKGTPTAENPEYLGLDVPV
The target in data set [2] is Epidermal growth factor receptor (Homo sapiens, UniProt P00533). Description: Inhibition of wild type human N-terminal GST tagged EGFR (669 to 1210 residues) expressed in Sf21 insect cells incubated for 30 mins in presence of ATP by HTRF analysis.
Sequence of Epidermal growth factor receptor (P00533 whole entry, the tested form may be a part): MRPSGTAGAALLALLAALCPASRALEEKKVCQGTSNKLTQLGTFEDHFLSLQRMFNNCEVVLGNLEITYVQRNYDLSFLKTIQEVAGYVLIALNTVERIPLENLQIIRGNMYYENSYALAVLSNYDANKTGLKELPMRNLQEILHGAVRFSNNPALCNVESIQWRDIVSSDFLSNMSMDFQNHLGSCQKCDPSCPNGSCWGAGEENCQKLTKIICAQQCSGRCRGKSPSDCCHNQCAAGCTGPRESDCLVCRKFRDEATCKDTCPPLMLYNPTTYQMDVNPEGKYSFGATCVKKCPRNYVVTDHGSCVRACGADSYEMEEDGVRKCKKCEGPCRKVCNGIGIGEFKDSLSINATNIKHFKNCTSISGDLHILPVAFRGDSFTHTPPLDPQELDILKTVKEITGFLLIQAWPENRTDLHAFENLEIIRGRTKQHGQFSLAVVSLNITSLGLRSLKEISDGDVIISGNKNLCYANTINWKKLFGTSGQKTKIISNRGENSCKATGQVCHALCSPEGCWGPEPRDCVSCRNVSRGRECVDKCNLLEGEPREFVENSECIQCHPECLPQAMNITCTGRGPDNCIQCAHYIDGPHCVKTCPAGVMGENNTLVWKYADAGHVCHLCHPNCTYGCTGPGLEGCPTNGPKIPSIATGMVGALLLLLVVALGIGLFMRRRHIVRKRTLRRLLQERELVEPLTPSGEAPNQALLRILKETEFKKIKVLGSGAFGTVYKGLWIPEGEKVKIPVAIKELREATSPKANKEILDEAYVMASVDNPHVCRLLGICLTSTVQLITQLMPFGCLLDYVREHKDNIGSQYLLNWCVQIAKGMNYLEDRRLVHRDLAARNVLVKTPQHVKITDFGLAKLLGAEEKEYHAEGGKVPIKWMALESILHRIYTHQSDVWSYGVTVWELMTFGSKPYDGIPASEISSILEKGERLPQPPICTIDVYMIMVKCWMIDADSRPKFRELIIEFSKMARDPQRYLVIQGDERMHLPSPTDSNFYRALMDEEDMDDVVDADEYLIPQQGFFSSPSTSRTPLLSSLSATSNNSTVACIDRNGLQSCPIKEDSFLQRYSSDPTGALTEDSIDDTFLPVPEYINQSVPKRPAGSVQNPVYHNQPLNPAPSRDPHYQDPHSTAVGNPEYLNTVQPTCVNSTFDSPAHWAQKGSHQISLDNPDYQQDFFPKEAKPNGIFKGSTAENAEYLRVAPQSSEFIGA
Another data set relates to NCI-N87. In words: Antiproliferative activity against human NCI-N87 cells assessed as inhibition of cell growth incubated for 72 hrs by Celltiter-Glo assay. The class given is functional, cell-based. The settings on record: NCI-N87, 72 h.
Data set [3] can be described thus: Cmax in Sprague-Dawley rat at 10 mg/kg, po measured upto 1440 mins by LC/MS/MS analysis. In kind it is ADME, organism-based. Also on record: time < 1440 min, dose 10 mg/kg, route po. Particulars: in vivo.
The nature of data set [4]: Half life in ICR mouse at 10 mg/kg, po measured upto 1440 mins by LC/MS/MS analysis. In kind it is ADME, organism-based. Particulars: in vivo.
Data set [5] in a line: Cmax in ICR mouse at 10 mg/kg, po measured upto 1440 mins by LC/MS/MS analysis. In kind it is ADME, organism-based. Also on record: dose 10 mg/kg, time < 1440 min, route po. The settings on record: in vivo.
Data set [6] can be described thus: Half life in Sprague-Dawley rat at 3 mg/kg, iv measured upto 1440 mins by LC/MS/MS analysis. Particulars: in vivo. The class given is ADME, organism-based.
The nature of data set [7]: Clearance in ICR mouse at 3 mg/kg, iv measured upto 1440 mins by LC/MS/MS analysis. In kind it is ADME, organism-based. The settings on record: in vivo.
Data set [8] is described as follows: Oral bioavailability in Sprague-Dawley rat at 10 mg/kg measured upto 1440 mins by LC/MS/MS analysis. The class given is ADME, organism-based. Particulars: in vivo.
Data set [9] is described as follows: Tmax in Sprague-Dawley rat at 10 mg/kg, po measured upto 1440 mins by LC/MS/MS analysis. The class given is ADME, organism-based. Particulars: in vivo.
Data set [10] is described as follows: Volume of distribution at steady state in Sprague-Dawley rat at 3 mg/kg, iv measured upto 1440 mins by LC/MS/MS analysis. In kind it is ADME, organism-based. Particulars: in vivo, read-out: Vdss.
Data set [11] is described as follows: Clearance in Sprague-Dawley rat at 3 mg/kg, iv measured upto 1440 mins by LC/MS/MS analysis. The class given is ADME, organism-based. Particulars: in vivo.
Data set [12] can be described thus: Half life in ICR mouse at 3 mg/kg, iv measured upto 1440 mins by LC/MS/MS analysis. The class given is ADME, organism-based. Particulars: in vivo.
A short description of data set [13]: Tmax in ICR mouse at 10 mg/kg, po measured upto 1440 mins by LC/MS/MS analysis. The class given is ADME, organism-based. Particulars: in vivo.
Data set [14] can be described thus: Volume of distribution at steady state in ICR mouse at 3 mg/kg, iv measured upto 1440 mins by LC/MS/MS analysis. The class given is ADME, organism-based. Particulars: in vivo, read-out: Vdss.
The nature of data set [15]: AUC (0 to t) in ICR mouse at 10 mg/kg, po measured upto 1440 mins by LC/MS/MS analysis. The class given is ADME, organism-based. Also on record: time < 1440 min, dose 10 mg/kg, route po. The settings on record: in vivo.
Data set [16] in a line: Oral bioavailability in ICR mouse at 10 mg/kg measured upto 1440 mins by LC/MS/MS analysis. The settings on record: in vivo. The class given is ADME, organism-based.
Data set [17] is described as follows: Half life in Sprague-Dawley rat at 10 mg/kg, po measured upto 1440 mins by LC/MS/MS analysis. The class given is ADME, organism-based. The settings on record: in vivo.
The nature of data set [18]: AUC (0 to t) in Sprague-Dawley rat at 10 mg/kg, po measured upto 1440 mins by LC/MS/MS analysis. In kind it is ADME, organism-based. Also on record: dose 10 mg/kg, time < 1440 min, route po. Particulars: in vivo.
Data set [19] in a line: Metabolic stability in human liver microsomes assessed as half life at 1 uM preincubated for 5 mins followed by NADPH addition by LC-MS/MS analysis. In kind it is ADME, Microsome.
A short description of data set [20]: Metabolic stability in human liver microsomes assessed as intrinsic clearance at 1 uM preincubated for 5 mins followed by NADPH addition by LC-MS/MS analysis. The class given is ADME, Microsome. The settings on record: read-out: CLH. On the technique in general: Liver microsomes are vesicles of endoplasmic reticulum, rich in cytochrome P450 enzymes.

For the compound `Cc1cc(Nc2c(C#N)cnc3ccc(NC(=O)/C=C/CN(C)C)cc23)ccc1Oc1cc2nncn2cn1`, the IC50 in the data set with BT-474 is 14.9 nM; in data set [1], 62.3 nM; in [2], 20.7 nM; in the data set with NCI-N87, 19.2 nM.
The like results for `Cc1cc(Nc2ncnc3cc(O)c(NC(=O)/C=C/[C@H]4CCCN4C)cc23)ccc1Oc1cnn2cnnc2c1` were, in that order, 20.8 nM, 16 nM, 11.8 nM and 28.3 nM.
With `CCOc1cc2ncnc(Nc3ccc(Oc4cc5nncn5cn4)c(C)c3)c2cc1NC(=O)/C(F)=C\[C@@H]1CCCN1C`, the figures for the maximum concentration (Cmax) in data set [3] and in data set [5] were 0.03 µg/mL and 0.29 µg/mL, respectively. Besides, the half-life in data set [4] was 0.87 h; in data set [6], 6.62 h; in data set [12], 1.16 h; in data set [17], 4.14 h. The IC50 in the data set on BT-474 stood at 1.75 nM; in data set [1], 3.68 nM; in [2], 25.9 nM; with NCI-N87, 0.56 nM. Besides, the figures for the clearance in [7] and in data set [11] were 5.4 L/h/kg and 4.85 L/h/kg, respectively. Moreover, the bioavailability in [8] came out at 13.7%; in data set [16], 34.4%. In addition, the Tmax in data set [9] was determined as 2.67 h; in data set [13], 0.42 h. Besides, the Vd amounted to 23.6 L/kg in data set [10] and 4.49 L/kg in data set [14]. Moreover, the values for the AUC(0-t) at 24 h in data set [15] and in data set [18] were 0.63 µg·h/mL and 0.17 µg·h/mL, respectively.
Regarding `Cc1cc(Nc2ncnc3cc(O)c(NC(=O)/C=C/[C@H]4CCCN4C)cc23)ccc1Oc1cnc2ccnn2c1`, the IC50 turned out to be 3.11 nM in the data set on BT-474, 2.41 nM in data set [1], 1.03 nM in [2] and 1.9 nM in the data set on NCI-N87.
Regarding `Cc1cc(Nc2ncnc3cc(O)c(NC(=O)/C=C/[C@H]4CCCN4C)cc23)ccc1Oc1ccn2ccnc2c1`, the IC50 with BT-474 is 4.63 nM; in [1], 1.7 nM; in data set [2], 2.31 nM; in the data set with NCI-N87, 4.55 nM.
`Cc1cc(Nc2ncnc3cc(O)c(NC(=O)/C=C/[C@H]4CCCN4C)cc23)ccc1Oc1ccn2cnnc2c1`: the IC50 in the data set on BT-474 was determined as 26.8 nM; in data set [1], 6.31 nM; in data set [2], 22.7 nM; in the data set with NCI-N87, 32.9 nM.
As for `C=C(F)C(=O)Nc1cc2c(Nc3ccc(Oc4cc5nncn5cn4)c(C)c3)ncnc2cc1OCC`, the IC50 with BT-474 was 3.88 nM; in data set [1] it was 4.05 nM; in data set [2], 9.6 nM; in the data set on NCI-N87, 6.56 nM. In addition, in data set [19], the half-life at 1 µM was found to be 0.578 h. Moreover, the microsomal CLint at 1 µM in data set [20] came to 40 µL/min/mg.
As for `COCC(=O)NC/C=C/c1ccc2ncc(C#N)c(Nc3ccc(Oc4cc5nncn5cn4)c(C)c3)c2c1`, the concentration for half-maximal inhibition (IC50) with BT-474 came to 369 nM; in [2] it was 1830 nM; with NCI-N87, 441 nM.
For `CCOc1cc2ncnc(Nc3ccc(Oc4cc5nncn5cn4)c(C)c3)c2cc1NC(=O)/C=C/[C@H]1CCCN1C`, the Cmax in [3] stood at 0.28 µg/mL; in data set [5], 0.4 µg/mL. In addition, the half-life in [4] was 3.07 h; in [6] it was 2.09 h; in data set [12], 4.38 h; in data set [17], 4.32 h. The half-inhibitory concentration (IC50) was 2.13 nM with BT-474, 1.67 nM in data set [1], 1.36 nM in data set [2] and 1.12 nM in the data set on NCI-N87. Also, the clearance in data set [7] was 1.32 L/h/kg; in data set [11], 3.33 L/h/kg. For the same compound, the bioavailability turned out to be 47.5% in data set [8] and 22.6% in [16]. The Tmax in data set [9] is 4 h; in data set [13] it was 1.67 h. Also, the Vd in data set [10] amounted to 10.6 L/kg; in data set [14], 2.79 L/kg. The half-life at 1 µM in data set [19] stood at 12.9 h. Moreover, the AUC(0-t) at 24 h in data set [15] stood at 1.7 µg·h/mL; in data set [18], 2.17 µg·h/mL. Also, the microsomal CLint at 1 µM in [20] was determined as 1.81 µL/min/mg.
As for `CCOc1cc2ncnc(Nc3ccc(Oc4cc5nncn5cn4)c(C)c3)c2cc1NC(=O)/C(F)=C/[C@@H]1CCCN1C`, the 50% inhibitory concentration (IC50) in the data set with BT-474 is 2.65 nM; in [1], 3.38 nM; in data set [2], 32.1 nM; in the data set with NCI-N87, 1.55 nM. For the same compound, in data set [19], the half-life at 1 µM was 1.37 h. Besides, the microsomal CLint at 1 µM in data set [20] was 16.9 µL/min/mg.
In the case of `Cc1cc(Nc2ncnc3cc(O)c(NC(=O)/C=C/[C@H]4CCCN4C)cc23)ccc1Oc1ccn2ncnc2c1`, the IC50 in the data set with BT-474 amounted to 2.4 nM; in data set [1], 1.43 nM; in data set [2], 2.8 nM; in the data set on NCI-N87, 2.65 nM.
As to `CCOc1cc2ncnc(Nc3ccc(Oc4cc5nncn5cn4)c(C)c3)c2cc1NC(=O)/C(F)=C\[C@H]1CCCN1C`, the IC50 came out at 3.36 nM with BT-474, 7.3 nM in data set [1] and 86.3 nM in data set [2]. Also, the half-life at 1 µM in data set [19] amounted to 0.954 h. Further, in [20], the microsomal CLint at 1 µM is 24.2 µL/min/mg.
For the compound `Cc1cc(Nc2ncnc3ccc(NC(=O)/C=C/CN(C)C)cc23)ccc1Oc1cc2nncn2cn1`, the IC50 is 8.05 nM in the data set on BT-474, 2.85 nM in [1], 2.13 nM in [2] and 11.7 nM in the data set on NCI-N87.
With `Cc1cc(Nc2ncnc3ccc(NC(=O)/C=C/[C@H]4CCCN4C)cc23)ccc1Oc1cc2nncn2cn1`, the IC50 came out at 3.06 nM in the data set on BT-474, 1.4 nM in data set [1], 1.19 nM in data set [2] and 2.17 nM with NCI-N87.
The like results for `Cc1cc(Nc2c(C#N)cnc3ccc(NC(=O)/C=C/[C@H]4CCCN4C)cc23)ccc1Oc1cc2nncn2cn1` were, in that order, 7.44 nM, 10.8 nM, 3.13 nM and 6.7 nM.
The like results for `Cc1cc(Nc2ncnc3cc(O)c(NC(=O)/C=C/[C@H]4CCCN4C)cc23)ccc1Oc1cc2nccn2cn1` were, in that order, 5.59 nM, 1.06 nM, 1.11 nM and 41.7 nM.
As for `Cc1cc(Nc2ncnc3cc(O)c(NC(=O)/C=C/[C@H]4CCCN4C)cc23)ccc1Oc1ccc2nccn2c1`, the IC50 worked out at 5.22 nM with BT-474, 6.42 nM in data set [1], 2.32 nM in data set [2] and 4.08 nM in the data set on NCI-N87.
In the same order, the values of `C=CC(=O)Nc1cc2c(Nc3ccc(Oc4cc5nncn5cn4)c(C)c3)ncnc2cc1OCC` are 4.69 nM, 1.93 nM, 1.47 nM and 51.9 nM.
The like results for `COCC(=O)NC/C=C/c1ccc2ncnc(Nc3ccc(Oc4cc5nncn5cn4)c(C)c3)c2c1` were, in that order, 50 nM, 2.55 nM, 110 nM and 80.7 nM.

By IC50 is commonly meant the concentration at which inhibition is half-maximal. As a reminder, the Cmax is the maximum level reached in the sampled fluid or tissue. What is called half-life is how long it takes for the measured level to halve. By clearance is commonly meant a measure of how efficiently the substance is removed, as volume per time. Higher therefore signals a high capacity for elimination. Usually bioavailability stands for the share of a dose that reaches the circulation, judged against a reference dose that is usually intravenous. By Tmax is commonly meant the time from dosing to the highest level. One may read the AUC(0-t) as exposure summed from dosing to a finite time, without extrapolation to infinity.
